Data set [1] in a line: Stability of the compound in phosphate buffer at 100 uM at pH 7.4 under dark condition after 1 month by HPLC analysis. In kind it is physicochemical. As to conditions: pH 7.4, 730.5 h.
Data set [2] relates to HEK293. Put plainly: Cytotoxicity against HEK293 cells at 1 to 30 uM using acetoxymethylated compound after 2 days by MTT assay. As to conditions: human, hek293, 48 h. In kind it is cell-based. A general note: Tetrazolium dyes change colour on reduction, which living cells bring about.
A short description of data set [3]: Induction of H2S release in phosphate buffer at 100 uM at pH 7.4 followed by UV-irrdiation by methylene-blue assay. In kind it is physicochemical. As to conditions: pH 7.4, 100 µM, TDE = time-dependent effect.
A short description of data set [4]: Induction of H2S release in phosphate buffer at 100 uM at pH 7.4 UV-irrdiated for 300 secs by fluorescence assay relative to control. In kind it is physicochemical. As to conditions: pH 7.4, 5 min.
Data set [5] concerns HEK293. In words: Induction of H2S release in HEK293 cells at 100 uM using acetoxymethylated compound incubated for 30 mins followed by UV photoirradiation for 5 mins by fluorescence microscopic analysis. In kind it is functional, cell-based. As to conditions: Homo sapiens.
Data set [6] in a line: Induction of H2S release in phosphate buffer at 100 uM at pH 7.4 UV-irrdiated for 400 secs by methylene-blue assay. In kind it is physicochemical. As to conditions: pH 7.4, 0.111111 h.
The test system of data set [7] is HEK293. Put plainly: Induction of H2S release in HEK293 cells at 100 uM incubated for 30 mins followed by UV photo-irradiation for 5 mins by fluorescence microscopic analysis. As to conditions: Homo sapiens. In kind it is functional, cell-based.

Each structure is given as a SMILES string. Activity calls are given as the source filed them. No cut-off for these calls is given here.

With `CC(CSCC(C)(C(=O)O)c1ccc2oc3ccccc3c(=O)c2c1)(C(=O)O)c1ccc2oc3ccccc3c(=O)c2c1` (configuration not stated), the Stability result in data set [1] is on record as “Stable”. Besides, the Activity result in data set [2] is recorded as “Non-toxic”; in data set [3] it was “tde”; in data set [4] it was “Active”. Also, in data set [5], the outcome was Active.
In the case of `CC(CSCC(C)(C(=O)O)c1cccc(C(=O)c2ccccc2)c1)(C(=O)O)c1cccc(C(=O)c2ccccc2)c1` (configuration not stated), the Activity in data set [6] amounted to 15 µM. For the same compound, the result in data set [7] was inactive.

(Values after ChEMBL document CHEMBL3351545, “Development of photo-controllable hydrogen sulfide donor applicable in live cells” (Bioorg Med Chem Lett, 2015).)
